# From PubChem BioAssay (NCI)
# Values joined by “and” are separate entries in the source; they are usually repeats but may differ in a detail not shown here. Identical values can stand only once.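 Following 48 hours of exposure in 96-well plates, responses at five concentrations were used to interpolate endpoints linearly. Abbreviation: GI50, concentration required for 50% inhibition of growth. The concentration for full growth arrest is given as TGI.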
# What was measured:
# Test in all cases: growth of human tumour cells (NCI), 48 h
# NCI/ADR-RES ovarian = test system: NCI/ADR-RES ovarian
# IGROV1 ovarian = test system: IGROV1 ovarian
# RPMI-8226 leukemia = test system: RPMI-8226 leukemia
# MDA-MB-231 breast = test system: MDA-MB-231 breast
# ACHN renal = test system: ACHN renal
# HT29 colon = test system: HT29 colon
# K-562 leukemia = test system: K-562 leukemia
# KM12 colon = test system: KM12 colon
# UACC-257 melanoma = test system: UACC-257 melanoma
# UO-31 renal = test system: UO-31 renal
# MCF7 breast = test system: MCF7 breast
# EKVX NSCLC = test system: EKVX NSCLC
# HCT-116 colon = test system: HCT-116 colon
# NCI-H23 lung = test system: NCI-H23 lung
# BT-549 breast = test system: BT-549 breast
# 786-0 renal = test system: 786-0 renal
# RXF 393 renal = test system: RXF 393 renal
# HOP-92 NSCLC = test system: HOP-92 NSCLC
# SF-295 CNS = test system: SF-295 CNS
# UACC-62 melanoma = test system: UACC-62 melanoma
# SK-MEL-5 melanoma = test system: SK-MEL-5 melanoma
# NCI-H226 lung = test system: NCI-H226 lung
# NCI-H460 lung = test system: NCI-H460 lung
# MOLT-4 leukemia = test system: MOLT-4 leukemia
# HOP-62 NSCLC = test system: HOP-62 NSCLC
# COLO 205 colon = test system: COLO 205 colon
# OVCAR-3 ovarian = test system: OVCAR-3 ovarian
# OVCAR-8 ovarian = test system: OVCAR-8 ovarian
# CCRF-CEM leukemia = test system: CCRF-CEM leukemia
# SW-620 colon = test system: SW-620 colon
# CAKI-1 renal = test system: CAKI-1 renal
# SF-268 CNS = test system: SF-268 CNS
# SN12C renal = test system: SN12C renal
# A498 renal = test system: A498 renal
# LOX IMVI melanoma = test system: LOX IMVI melanoma
# HS 578T breast = test system: HS 578T breast
# MDA-MB-435 = test system: MDA-MB-435
# HCT-15 colon = test system: HCT-15 colon
# M14 melanoma = test system: M14 melanoma
# SK-MEL-28 melanoma = test system: SK-MEL-28 melanoma
# HCC-2998 colon = test system: HCC-2998 colon
# SF-539 CNS = test system: SF-539 CNS
# TK-10 renal = test system: TK-10 renal
# A549 NSCLC = test system: A549 NSCLC
# NCI-H522 lung = test system: NCI-H522 lung
# U251 CNS = test system: U251 CNS
# HL-60(TB) leukemia = test system: HL-60(TB) leukemia
# PC-3 prostate = test system: PC-3 prostate
# OVCAR-5 ovarian = test system: OVCAR-5 ovarian
# SNB-75 CNS = test system: SNB-75 CNS
# T-47D breast = test system: T-47D breast
# SK-MEL-2 melanoma = test system: SK-MEL-2 melanoma
# DU-145 prostate = test system: DU-145 prostate
# MDA-N = test system: MDA-N
# OVCAR-4 ovarian = test system: OVCAR-4 ovarian
# SNB-19 CNS = test system: SNB-19 CNS
# SK-OV-3 ovarian = test system: SK-OV-3 ovarian
# MALME-3M melanoma = test system: MALME-3M melanoma
# SR leukemia = test system: SR leukemia
smiles,measurement,setting,value
CN(C)CCNC(=O)C(C)(C)Oc1ccc(C(=O)c2ccc(Cl)cc2)cc1Cl,TGI,NCI/ADR-RES ovarian,26.1 µM
same,TGI,IGROV1 ovarian,25.3 µM
same,GI50,RPMI-8226 leukemia,3.32 µM
same,TGI,RPMI-8226 leukemia,> 48.7 µM
same,GI50,MDA-MB-231 breast,2.25 µM
same,TGI,MDA-MB-231 breast,4.93 µM and 23.6 µM
same,TGI,ACHN renal,23 µM
same,TGI,HT29 colon,8.18 µM and 9.21 µM
same,GI50,K-562 leukemia,2.42 µM
same,TGI,K-562 leukemia,9.19 µM and > 39 µM
same,TGI,KM12 colon,23 µM
same,GI50,UACC-257 melanoma,3.11 µM
same,TGI,UACC-257 melanoma,7.79 µM and 4.84 µM
same,TGI,UO-31 renal,22.8 µM
same,GI50,MCF7 breast,3.8 µM
same,TGI,MCF7 breast,24.3 µM
same,TGI,EKVX NSCLC,23.9 µM
same,TGI,HCT-116 colon,20 µM
same,GI50,NCI-H23 lung,4.77 µM
same,TGI,NCI-H23 lung,21.9 µM
same,TGI,BT-549 breast,23.9 µM
same,GI50,786-0 renal,3.37 µM
same,TGI,786-0 renal,13.6 µM
same,GI50,RXF 393 renal,9.94 µM
same,TGI,RXF 393 renal,21.7 µM
same,TGI,HOP-92 NSCLC,18.1 µM
same,GI50,SF-295 CNS,4.74 µM
same,TGI,SF-295 CNS,22.6 µM
same,GI50,UACC-62 melanoma,2.81 µM
same,TGI,UACC-62 melanoma,4.29 µM
same,GI50,SK-MEL-5 melanoma,1.53 µM
same,TGI,SK-MEL-5 melanoma,6.11 µM and 2.97 µM
same,TGI,NCI-H226 lung,29 µM
same,TGI,NCI-H460 lung,20.4 µM
same,GI50,MOLT-4 leukemia,3.26 µM
same,TGI,MOLT-4 leukemia,> 59.8 µM
same,TGI,HOP-62 NSCLC,23.9 µM
same,GI50,COLO 205 colon,4.41 µM
same,TGI,COLO 205 colon,3.7 µM
same,TGI,OVCAR-3 ovarian,25.7 µM
same,TGI,OVCAR-8 ovarian,24.5 µM
same,GI50,CCRF-CEM leukemia,5.31 µM
same,TGI,CCRF-CEM leukemia,> 77.3 µM
same,TGI,SW-620 colon,18.3 µM
same,TGI,CAKI-1 renal,26.2 µM
same,TGI,SF-268 CNS,28.7 µM
same,GI50,SN12C renal,3.59 µM
same,TGI,SN12C renal,26.7 µM
same,TGI,A498 renal,30.7 µM
same,GI50,LOX IMVI melanoma,0.0392 µM
same,TGI,LOX IMVI melanoma,20.1 µM
same,TGI,HS 578T breast,23 µM
same,TGI,MDA-MB-435,17.2 µM
same,GI50,HCT-15 colon,2.71 µM
same,TGI,HCT-15 colon,7.12 µM and 11.2 µM
same,GI50,M14 melanoma,1.82 µM
same,TGI,M14 melanoma,3.67 µM and 5.99 µM
same,GI50,SK-MEL-28 melanoma,2.63 µM
same,TGI,SK-MEL-28 melanoma,5.14 µM and 3.58 µM
same,TGI,HCC-2998 colon,16.7 µM
same,TGI,SF-539 CNS,22.2 µM
same,TGI,TK-10 renal,23.7 µM
same,GI50,A549 NSCLC,12.2 µM
same,TGI,A549 NSCLC,24.6 µM
same,TGI,NCI-H522 lung,28.2 µM
same,TGI,U251 CNS,20 µM
same,GI50,HL-60(TB) leukemia,2.82 µM
same,TGI,HL-60(TB) leukemia,> 29.1 µM
same,GI50,PC-3 prostate,5.84 µM
same,TGI,PC-3 prostate,24 µM
same,TGI,OVCAR-5 ovarian,28.9 µM
same,GI50,SNB-75 CNS,9.71 µM
same,TGI,SNB-75 CNS,24.8 µM
same,GI50,T-47D breast,5.87 µM
same,TGI,T-47D breast,24.4 µM
same,TGI,SK-MEL-2 melanoma,32.6 µM
same,GI50,DU-145 prostate,2.7 µM
same,TGI,DU-145 prostate,26.1 µM
same,GI50,MDA-N,6.48 µM
same,TGI,MDA-N,19.8 µM
same,TGI,OVCAR-4 ovarian,28 µM
same,TGI,SNB-19 CNS,26 µM
same,TGI,SK-OV-3 ovarian,29.6 µM
same,GI50,MALME-3M melanoma,3.9 µM
same,TGI,MALME-3M melanoma,11.1 µM
same,GI50,SR leukemia,3.48 µM
same,TGI,SR leukemia,> 100 µM
CCOC(=O)CSc1nnc2cc(CN3CCCC3)c(-c3ccc(Cl)cc3)nn12,TGI,NCI/ADR-RES ovarian,> 100 µM
same,TGI,IGROV1 ovarian,> 100 µM
same,TGI,RPMI-8226 leukemia,> 100 µM
same,TGI,MDA-MB-231 breast,> 100 µM
same,TGI,ACHN renal,> 100 µM
same,TGI,HT29 colon,> 100 µM
same,TGI,K-562 leukemia,> 100 µM
same,TGI,KM12 colon,> 100 µM
same,TGI,UACC-257 melanoma,> 100 µM
same,TGI,UO-31 renal,> 100 µM
same,TGI,MCF7 breast,> 100 µM
same,TGI,EKVX NSCLC,> 100 µM
same,TGI,HCT-116 colon,> 100 µM
same,TGI,NCI-H23 lung,> 100 µM
same,TGI,BT-549 breast,> 100 µM
same,TGI,786-0 renal,> 100 µM
same,TGI,RXF 393 renal,> 100 µM
same,TGI,HOP-92 NSCLC,> 100 µM
same,TGI,SF-295 CNS,> 100 µM
same,TGI,UACC-62 melanoma,> 100 µM
same,TGI,SK-MEL-5 melanoma,> 100 µM
same,TGI,NCI-H226 lung,> 100 µM
same,TGI,NCI-H460 lung,> 100 µM
same,TGI,MOLT-4 leukemia,> 100 µM
same,TGI,HOP-62 NSCLC,> 100 µM
same,TGI,COLO 205 colon,> 100 µM
same,TGI,OVCAR-3 ovarian,> 100 µM
same,TGI,OVCAR-8 ovarian,> 100 µM
same,TGI,CCRF-CEM leukemia,> 100 µM
same,TGI,SW-620 colon,> 100 µM
same,TGI,CAKI-1 renal,> 100 µM
same,TGI,SF-268 CNS,> 100 µM
same,TGI,SN12C renal,> 100 µM
same,TGI,A498 renal,> 100 µM
same,TGI,LOX IMVI melanoma,> 100 µM
same,TGI,HS 578T breast,> 100 µM
same,TGI,MDA-MB-435,> 100 µM
same,TGI,HCT-15 colon,> 100 µM
same,TGI,M14 melanoma,> 100 µM
same,TGI,SK-MEL-28 melanoma,> 100 µM
same,TGI,SF-539 CNS,> 100 µM
same,TGI,TK-10 renal,> 100 µM
same,TGI,A549 NSCLC,> 100 µM
same,TGI,NCI-H522 lung,> 100 µM
same,TGI,U251 CNS,> 100 µM
same,TGI,HL-60(TB) leukemia,> 100 µM
same,TGI,PC-3 prostate,> 100 µM
same,TGI,OVCAR-5 ovarian,> 100 µM
same,TGI,SNB-75 CNS,> 100 µM
same,TGI,T-47D breast,> 100 µM
same,TGI,SK-MEL-2 melanoma,> 100 µM
same,TGI,DU-145 prostate,> 100 µM
same,TGI,MDA-N,> 100 µM
same,TGI,OVCAR-4 ovarian,> 100 µM
same,TGI,SNB-19 CNS,> 100 µM
same,TGI,SK-OV-3 ovarian,> 100 µM
same,TGI,MALME-3M melanoma,> 100 µM
same,TGI,SR leukemia,> 100 µM
